Values of other authors in patent US20080319015A1, “Insect Repellent Mixture” (priority 2005, published 2008).

Test system: biting mosquitoes
Conditions: proportion of about 10% by weight in a formulation

Structure (SMILES): CCCCN(CCC(=O)OCC)C(C)=O [ethyl butylacetylaminopropionate, ethyl 3-(N-n-butyl-N-acetylamino)propionate]
- protection times: up to 4 hours
